This series in a line: Binding energy by using the equation deltaG obsd = -RT ln KD. It is filed as ADME.
In turn, `CN1[C@@H]2C[C@@H](OC(=O)[C@H](CO)c3ccccc3)C[C@H]1[C@@H]1O[C@@H]12` [SCOPOLAMINE] had a Binding energy of 12.9 kcal/mol.

For the compound `CN(C)CCC(c1ccc(Cl)cc1)c1ccccn1` (stereo not drawn) [CHLORPHENIRAMINE], the Binding energy stood at 12.8 kcal/mol.

On to `CC(C)Cc1ccc(C(C)C(=O)O)cc1` (stereo not drawn) [IBUPROFEN], for which the Binding energy is 8.3 kcal/mol.

Regarding `Cl[C@H]1[C@H](Cl)[C@@H](Cl)[C@@H](Cl)[C@H](Cl)[C@H]1Cl` [LINDANE], the Binding energy came out at 6.1 kcal/mol.

`CN(C)CCOC(c1ccc(Cl)cc1)c1ccccn1` (stereo not drawn) [CARBINOXAMINE] showed a Binding energy of 12.3 kcal/mol.

`COc1cc(Cc2cnc(N)nc2N)cc(OC)c1OC` [TRIMETHOPRIM] yielded a Binding energy of 11.5 kcal/mol.

Compound `C[C@@H]1C[C@H]2[C@@H]3CCC4=CC(=O)C=C[C@]4(C)[C@@]3(F)[C@@H](O)C[C@]2(C)[C@@]1(O)C(=O)CO` [DEXAMETHASONE] displayed a Binding energy of 10.9 kcal/mol.

`O=C(O)CC(CC(=O)CP(=O)(O)O)C(=O)O` (stereo not drawn) had a Binding energy of 10.9 kcal/mol.

The compound `CC(Oc1c(Cl)cccc1Cl)C1=NCCN1` (stereo not drawn) [LOFEXIDINE] displayed a Binding energy of 11.8 kcal/mol.

Consider BIBROCATHOL, for which the Binding energy stood at 10.7 kcal/mol.

For the compound `O=P(O)(O)O` [PHOSPHORIC ACID], the Binding energy came out at 7.7 kcal/mol.

For `O=C(CCCN1CCC(O)(c2ccc(Cl)cc2)CC1)c1ccc(F)cc1` [HALOPERIDOL], the Binding energy is 12.3 kcal/mol.

`NCCc1c[nH]c2ccccc12` [TRYPTAMINE] came in with a Binding energy of 7.9 kcal/mol.

The compound `NC[C@H](O)c1ccc(O)c(O)c1` [NOREPINEPHRINE] came in with a Binding energy of 12.1 kcal/mol.

As for `O=c1[nH]c2ccccc2n1CCCN1CCC(n2c(=O)[nH]c3cc(Cl)ccc32)CC1` [DOMPERIDONE], the Binding energy is 13.8 kcal/mol.

On to `Clc1cccc(Cl)c1N=C1NCCN1` [CLONIDINE], for which the Binding energy amounted to 12.3 kcal/mol.

`O=C(O)Cc1ccccc1Oc1ccc(Cl)cc1Cl` [FENCLOFENAC] registered a Binding energy of 9.2 kcal/mol.

On to FLUPENTIXOL, for which the Binding energy is 11.5 kcal/mol.

Turning to `CN1CCC(=C2c3ccccc3Oc3ccc(Cl)cc32)CC1` [CLOPIPAZAN], the Binding energy came to 12.8 kcal/mol.

In turn, `COc1cc(CCN)cc(OC)c1OC` [MESCALINE] had a Binding energy of 7.1 kcal/mol.

With `COC(=O)[C@@H]1[C@H]2C[C@H]3c4[nH]c5ccccc5c4CCN3C[C@@H]2CC[C@@H]1O` [YOHIMBINE], the Binding energy turned out to be 11.9 kcal/mol.

In turn, `CO/C=C/C(N)C(=O)O` (stereo not drawn) yielded a Binding energy of 5.9 kcal/mol.

For the compound `O=C(O)C(Cc1ccccc1)OP(=O)(O)O` (stereo not drawn), the Binding energy turned out to be 9.3 kcal/mol.

With `O=C1CC(=O)N([C@@H]2O[C@H](COP(=O)(O)O)[C@@H](O)[C@H]2O)C(=O)N1`, the Binding energy amounted to 15.1 kcal/mol.

On to `O=P(O)(O)/C=C/CCO`, for which the Binding energy came out at 4.1 kcal/mol.

Compound `CN(C)CCC=C1c2ccccc2CCc2ccccc21` [AMITRIPTYLINE] showed a Binding energy of 12.3 kcal/mol.

The compound `O=C(O)C(COP(=O)(O)O)[C@H](O)[C@H](O)COP(=O)(O)O` (stereo partly drawn) yielded a Binding energy of 8.2 kcal/mol.

In turn, `O=c1cccc2n1C[C@@H]1CNC[C@H]2C1` [CYTISINICLINE] had a Binding energy of 12.1 kcal/mol.

The compound `O=C(c1ccc(F)cc1)C1CCN(CCn2c(=O)[nH]c3ccccc3c2=O)CC1` [KETANSERIN] displayed a Binding energy of 12.8 kcal/mol.

As for `N/C=C(\OP(=O)(O)O)C(=O)O`, the Binding energy is 10.5 kcal/mol.

Turning to `Clc1ccc(C(c2ccc(Cl)cc2)C(Cl)(Cl)Cl)cc1` [CHLOROPHENOTHANE], the Binding energy worked out at 7.6 kcal/mol.

Turning to `O=C1NCN(c2ccccc2)C12CCN(CCCC(c1ccc(F)cc1)c1ccc(F)cc1)CC2` [FLUSPIRILENE], the Binding energy was 11.6 kcal/mol.

For the compound `C=CCc1ccccc1OCC(O)CNC(C)C` (stereo not drawn) [ALPRENOLOL], the Binding energy stood at 12.9 kcal/mol.

`CCc1nc(N)nc(N)c1C12CC3CC(CC(C3)C1)C2` gave a Binding energy of 13.4 kcal/mol.

Consider `C[C@]12CCC(=O)C=C1CC[C@@H]1[C@@H]2[C@@H](O)C[C@]2(C=O)[C@@H](C(=O)CO)CC[C@@H]12` [ALDOSTERONE], for which the Binding energy stood at 12.7 kcal/mol.

`Cc1csc(Cl)c1NC1=NCCN1` [TIAMENIDINE]: the Binding energy came to 11.8 kcal/mol.

For `O=c1[nH]c(=O)c2c[nH]nc2[nH]1` [OXYPURINOL], the Binding energy was determined as 12.6 kcal/mol.

`C[C@]12CC[C@@H]3c4ccc(O)cc4CC[C@H]3[C@@H]1CC[C@@H]2O` [ESTRADIOL] registered a Binding energy of 13.2 kcal/mol.

On to `NC1(C(=O)O)CCCC1` [CYCLOLEUCINE], for which the Binding energy was found to be 4.9 kcal/mol.

The compound `N=C(N)N/N=C/c1c(Cl)cccc1Cl` [GUANABENZ] came in with a Binding energy of 12.3 kcal/mol.

As to `Nc1cc(Cl)c(N=C2NCCN2)c(Cl)c1` [APRACLONIDINE], the Binding energy worked out at 12.7 kcal/mol.

In turn, `C[C@]12CCC(=O)C[C@@H]1CC[C@@H]1[C@@H]2CC[C@]2(C)[C@@H](O)CC[C@@H]12` (stereo in doubt) [STANOLONE] came in with a Binding energy of 6.8 kcal/mol.

With `N=C(N)NC(=O)Cc1c(Cl)cccc1Cl` [GUANFACINE], the Binding energy worked out at 11.9 kcal/mol.

The compound `CN1[C@@H]2CC[C@H]1C[C@@H](OC(c1ccccc1)c1ccccc1)C2` [BENZTROPINE] returned a Binding energy of 12.6 kcal/mol.

`OC1(c2ccc(Cl)c(C(F)(F)F)c2)CCN(CCCC(c2ccc(F)cc2)c2ccc(F)cc2)CC1` [PENFLURIDOL] registered a Binding energy of 9.9 kcal/mol.

In the case of `NCc1cc(=O)[nH]o1` [MUSCIMOL], the Binding energy amounted to 11.9 kcal/mol.

`O=C(NC1CCN(CCc2c[nH]c3ccccc23)CC1)c1ccccc1` [INDORAMIN] yielded a Binding energy of 11.5 kcal/mol.

Consider `CC(C)NCC(O)COc1cccc2ccccc12` (stereo not drawn) [PROPRANOLOL], for which the Binding energy was found to be 12.8 kcal/mol.

`CC(=O)O[C@]1(C(C)=O)CC[C@H]2[C@@H]3C[C@H](C)C4=CC(=O)CC[C@]4(C)[C@H]3CC[C@@]21C` [MEDROXYPROGESTERONE ACETATE] showed a Binding energy of 10.2 kcal/mol.

Consider `CCCCC[C@H](O)/C=C/[C@@H]1[C@@H](C/C=C\CCCC(=O)O)[C@@H](O)C[C@H]1O` [DINOPROST], for which the Binding energy turned out to be 9.2 kcal/mol.

Regarding `CN1CCN2c3ccccc3Cc3ccccc3C2C1` (stereo not drawn) [MIANSERIN], the Binding energy worked out at 12.5 kcal/mol.

Take `CC12CCC(CC1=O)C2(C)C` (stereo not drawn) [CAMPHOR]: the Binding energy was 11.4 kcal/mol.

`CN1[C@@H]2CC[C@H]1C[C@@H](OC(=O)C(CO)c1ccccc1)C2` (stereo partly drawn) [ATROPINE] registered a Binding energy of 12.8 kcal/mol.

For the compound `COc1cccc(OC)c1OCCNCC1COc2ccccc2O1` (stereo not drawn), the Binding energy turned out to be 12.9 kcal/mol.

Consider `CCC1(c2ccccc2)C(=O)NC(=O)N(C)C1=O` (stereo not drawn) [MEPHOBARBITAL], for which the Binding energy came out at 7.3 kcal/mol.

For `CCC(=O)C(CC(C)N(C)C)(c1ccccc1)c1ccccc1` (stereo not drawn) [METHADONE], the Binding energy amounted to 11.8 kcal/mol.

In turn, `O=C(O)C(=O)O` [OXALIC ACID] gave a Binding energy of 7.8 kcal/mol.

On to `NCCc1c[nH]c2ccc(O)cc12` [SEROTONIN], for which the Binding energy was determined as 8.9 kcal/mol.

The values above are taken from ChEMBL document CHEMBL1122538, “Functional group contributions to drug-receptor interactions” (J Med Chem, 1984).
